Reference: US20100041691A1, “PHARMACEUTICAL COMPOSITIONS COMPRISING COMBINATIONS OF AN AMPA/KAINATE ANTAGONISTIC COMPOUND AND AN INHIBITOR OF A MULTIDRUG RESISTANCE PROTEIN” (NeuroSearch A/S, priority 2006, published 2010)
Like-named read-outs stand apart in the source and are kept apart here.

Legend:
[1] = test system: tonic seizures induced by 26 mA corneal stimulation; settings: Compound A i.v. 60 minutes before electroshock, female NMRI mice
From the text: After administration of vehicle or test substance female NMRI mice were stimulated with 26 mA for 0.3 seconds, using corneal stimulation (Rodent Shocker, Hugo Sachs Electronic, Germany). In presence of tonic seizure the mice was labeled 0% protection and if no tonic seizure was detected the mice was labeled 100% protection. Results were plotted as a function of logarithmic dose and fitted to a sigmoid-dose response (with variable slope (GraphPad Prism, ver. 4) and used to estimate the dose that would give a 50% protection from seizures (N=6/group).
Vehicle (5% chremophor) was dosed p.o.

[2] = 10 mg/kg i.v. with Verapamil I.C.V. versus Compound A only; mice; 5-60 minutes
Protocol: 16 NMRI-mice were allocated into 4 groups. The animals were anesthetised in 1.5% Isuflurane and 20% O2. […] At different time point (5 minutes, 15 minutes, 30 minutes and 60 minutes) after dosing the animals were killed by decapitation and blood and brain were collected. The EDTA stabilised blood was centrifugation at 4000 rpm for 20 minutes at 4° C. Plasma and brain samples were stored at −20° C. pending analysis.
Plasma and brain samples were analysed using LC-MS/MS (Quattro Ultimo Platinum with Acquility solvent and sample manager, Waters) in positive electrospray 10 ionisation and multiple reaction monitoring mode. The analytical column was a UPLC Acquility BEH C18 (1.7 μm) 1.0×50 mm (Waters) with gradient elution at a 0.13 ml/min flow rate. The initial mobile phase was 20% methanol/80% formic acid changed to 90% methanol/10% formic acid over a time period of 1.7 min.
Samples were centrifuged for 25 minutes at 5° C., 14000 rpm and 3 μl of the supernatants were injected onto the LC-column.
Brain tissue (0.1 g) was weighed out on top of a tube containing 0.8 ml bead (1.0 mm Zirconia from BioSpec Products). […]
Samples were quantified based on standard curves (linear, 1/×weighting), prepared in plasma and brain tissue respectively.

P-gp = settings: inhibition of P-gp in phenytoin-treated chronic epileptic rats; cited from earlier work

| Compound | ED50, protection against tonic seizures ([1]; pretreatment with Tariquidar 24 mg/kg p.o. 120 minutes before) | ED50, protection against tonic seizures ([1]; with vehicle (5% chremophor p.o.)) | brain exposure of Compound A [2] | seizure control (P-gp) |
| --- | --- | --- | --- | --- |
| CN1CCc2c(-c3ccc(S(=O)(=O)N(C)C)cc3)cc3c(c2C1)NC(=O)C3=NOC(CCO)C(=O)O (stereo not shown) [Compound A, 8-Methyl-5-(4-(N,N-dimethyl-sulfamoyl)phenyl)-6,7,8,9-tetrahydro-1H-pyrrolo[3,2h]-isoqinoline-2,3-dione-3-O-(4-hydroxybutyric acid-2-yl)oxime] | 24 mg/kg | 31.5 mg/kg | increase in brain exposure | – |
| COc1cc2c(cc1OC)CN(CCc1ccc(NC(=O)c3cc(OC)c(OC)cc3NC(=O)c3cnc4ccccc4c3)cc1)CC2 [Tariquidar] | – | – | – | improves seizure control |
